Measured values reported in US20260130900A1, “Controlled Release Pharmaceutical Composition” (Daewoong Pharmaceutical Co., Ltd., priority 2022, published 2026).

Experiment: Single-dose escalating clinical testing, safety/tolerability of the active ingredient
Format: in vivo, human
Excerpt: In order to confirm the safety/tolerability of the active ingredient in the human body, side effects were checked in healthy adult subjects.
The clinical testing was designed for 32 healthy adult subjects in a randomized, double-blinded, placebo-controlled, single-dose escalating manner, as shown in Table 1 below. The capsule tablets used in this clinical testing were produced by using Vcaps® enteric-coated capsules containing only the active ingredient in hydrochloride form without additional excipients, and filling capsules by volume. The ingredients of the enteric-coated tablet (1 tablet) used in the clinical testing are shown in Table 2 below, and were named ‘Comparative Example 1’. In addition, for the enteric-coated tablet administrated group, 5 tablets were administered at a time.

O[C@H]1CCCN[C@@H]1CCCn1cnc2c(Cl)c(Cl)ccc21 [API, (2R,3S)-2-(3-(4,5-dichloro-1H-benzo[d]imidazol-1-yl)propyl) piperidin-3-ol 1HCl]
time of occurrence of nausea and vomiting side effects versus exposure in the body (single administration, FIG. 1): the majority of cases occur before the blood concentration in the body increases | most frequently occurring adverse reactions (single oral administration 100-600 mg, enteric coated capsule or tablet, healthy adult subjects): gastrointestinal adverse reactions including nausea, vomiting, diarrhea, and abdominal pain
